Data on 1 molecule can be found in article PMC10113214 (Scientific Reports, 2023).

Structures are written as SMILES.

For data set [1], the target named is T1, Human neutrophil elastase (Homo sapiens, UniProt P08246).
T1 construct: purchased Sigma-Aldrich
T1 sequence (P08246 30-267): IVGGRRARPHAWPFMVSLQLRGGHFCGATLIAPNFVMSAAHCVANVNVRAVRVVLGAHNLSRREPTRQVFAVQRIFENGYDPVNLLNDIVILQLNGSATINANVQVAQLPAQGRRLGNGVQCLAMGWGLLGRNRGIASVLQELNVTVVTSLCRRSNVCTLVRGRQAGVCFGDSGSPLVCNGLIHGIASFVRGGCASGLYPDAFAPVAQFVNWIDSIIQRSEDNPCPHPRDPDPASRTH
Kind of data set: Elastase enzymatic cleavage. The format is in vitro ADME. The settings on record: human neutrophil elastase 150 nM, peptide 1 mM, 30 min, 37 °C; for identified fragments of peptides after elastase digestion (most abundant MS signals): 300 rpm, 0.1 M Tris HCl, 500 mM NaCl, 0.05% Triton X-100, 20 mM CaCl2 pH 7.5, HPLC and MALDI or LC-MS. How it is done:
Human neutrophil elastase (EC No. 3.4.21.37, Sigma-Aldrich) was used to study peptide susceptibility to that enzyme. Peptides were dissolved in 0.1 M Tris HCl, 500 mM NaCl, 0.05% Triton X-100, 20 mM CaCl2 pH 7.5 buffer mixture. Peptides (final concentration 1 mM) were mixed with the enzyme (final concentration 150 nM) and incubated for 30 min. in a thermoshaker (37 °C, 300 rpm). The reaction was stopped by a 10% aqueous solution of TFA. The results were analyzed using HPLC and MALDI or LC–MS. Details of this experiment are described in the Supplementary Data.

Data set [2] can be described thus: Circular dichroism, conformation and thermal stability of β-sheet. The format is physicochemical. The settings on record: CD. The protocol:
The molar ellipticity of peptides were registered on a Jasco J-815 spectrometer (JASCO, Easton, MD, USA). Solutions of peptide hybrids were prepared in water solution (10 mg/ml), incubated at 37 °C for 4 h and then diluted to a final concentration of 0.20 mg/ml. CD spectra measurements were performed at 25 °C, 30 °C, 35 °C, 40 °C, 45 °C, 50 °C, 55 °C and 60 °C, at 190–260 nm wavelength and at a scan speed of […]. The background of the solvent was subtracted. The results are presented as the relationship of mean residue molar ellipticity (MRME) [deg × cm^2 × dmol^−1] to wavelength [nm]. Measurements were performed in triplicate. In order to determine the peptides’ denaturation temperatures, the molar ellipticity rotatory angle at a fixed wavelength of 196 nm, [θ]196, was measured as a function of temperature (max 100 °C). CD temperature measurements were carried out up to a temperature of 100 °C. Above this temperature, the cure was extrapolated with GraphPad Prism 8 software using the 4PL curve fit function. The denaturation temperature was determined as the temperature at which the change in ellipticity (θ) was half complete.
(In general: Circular dichroism is widely used to follow secondary structure.)

Data set [3] is described as follows: Transmission electron microscopy of nanofibres. The format is physicochemical. To be noted: 1% gel in PBS diluted to 0.001%, uranyl acetate stain. The protocol:
1% gel solutions were prepared and incubated in PBS. The samples were then diluted to 0.001% concentration. A drop of solution was applied to a microcellulose membrane and stained with a 1.5% solution of uranyl acetate. The images were registered on a Tecnai Spirit BioTwin FEI Transmission Electron Microscope operating at 120 kV.

Another data set in a line: Rheology of hydrogels. It counts as physicochemical. The settings on record: 1% hydrogel, 37 °C. How it is done: Rheological parameters of the hydrogels were identified using an MCR 302 rheometer (Anton Paar GmbH, Graz, Austria). The rheometer was equipped with a CP50-1 stainless steel cone-and-plate system of 50 mm diameter, 1° cone angle and 50 µm cone truncation and a Peltier controlled temperature unit. An aliquot of 900 µL of 1% hydrogel was applied to a plate cone. The linear viscoelastic (LVE) region was determined through an amplitude sweeps: shear strain (0.01–100% at 6 rad s^−1) and shear stress (0.001–10 Pa at 6.28 rad s^−1). Frequency sweep were measured from 0.01 to 100 rad s^−1 at 2.5% strain. The frequency dependence of the storage modulus (G’) and loss modulus (G”) of the hydrogels were measured at 37 °C. All experiments were carried out in triplicate and reported as the mean of three repeats.

Data set [4] has as its system human primary dermal fibroblasts. It counts as cell-based. How it is done: Skin samples were obtained from patients of the Oncological Surgery Clinic in the Medical University of Gdańsk. The procedure was approved by the Independent Bioethics Commission for Research of the Medical University of Gdańsk (NKBBN/387/2014) and written informed consent was obtained from patients prior to surgery. All experiments were performed in accordance with guidelines and regulations. The isolation of fibroblasts was performed by explant culture as previously described. Briefly, skin samples were cut into small pieces, and the epidermis was removed by dispase digestion. To allow cells to grow out from the tissue samples, the human dermis was placed in 6-well plates in DMEM-HG medium (Sigma Aldrich Co., cat. D6429) supplemented with 10% of FBS (fetal bovine serum, Sigma-Aldrich Co., F9665), 100 U/mL of penicillin and 100 μg/mL streptomycin, and placed under standard conditions (humidified atmosphere with 5% CO2 at 37 °C). The medium was changed every 2–3 days.
RADA peptides were dissolved in water at a concentration of 1.0%, placed in culture inserts (0.4 μm) in 24-well plates, and incubated for at least 1 h at 37 °C to allow gelation. […] After 3 days of incubation, cells were stained with carboxyfluorescein succinimidyl ester (CFSE) (10 μM) and propidium iodide (100 µM) for 3 min. and then analyzed by fluorescence microscopy to assess their viability.

For the molecule `CC(=O)N[C@@H](CCCNC(=N)N)C(=O)N[C@@H](C)C(=O)N[C@@H](CC(=O)O)C(=O)N[C@@H](C)C(=O)N[C@@H](CCCNC(=N)N)C(=O)N[C@@H](C)C(=O)N[C@@H](CC(=O)O)C(=O)N[C@@H](C)C(=O)N[C@@H](CCCNC(=N)N)C(=O)N[C@@H](C)C(=O)N[C@@H](CC(=O)O)C(=O)N[C@@H](C)C(=O)N[C@@H](CCCNC(=N)N)C(=O)N[C@@H](C)C(=O)N[C@@H](CC(=O)O)C(=O)N[C@@H](C)C(=O)NCC(=O)NCC(=O)NCC(=O)N[C@@H](C)C(=O)N[C@@H](C)C(=O)N1CCC[C@H]1C(=O)N[C@H](C(=O)NCC(=O)NCC(=O)NCC(=O)N[C@@H](CCCCN)C(=O)NCC(=O)N[C@@H](Cc1c[nH]cn1)C(=O)N[C@@H](CCCCN)C(N)=O)C(C)C` [RADA-KGHK, Ac-(Arg-Ala-Asp-Ala)4-Gly-Gly-Gly-Ala-Ala-Pro-Val-Gly-Gly-Gly-Lys-Gly-His-Lys-NH2], the “identified fragments of peptides after elastase digestion (most abundant MS signals)” value in data set [1] (fragment Ac-(RADA)4-GGG-AAPV-COOH) is recorded as “Ac-(RADA)4-GGG-AAPV-COOH”; in data set [1] (fragment NH2-APV-GGG-KGHK-NH2), “NH2-APV-GGG-KGHK-NH2”; in data set [1] (fragment NH2-PV-GGG-KGHK-NH2) it was “NH2-PV-GGG-KGHK-NH2”. The “main / predominant fragments of elastase digestion” value in data set [1] (pH 7.5 buffer, HPLC, mass spectrometry) is “Ala^21Pro^22Val^23Gly^24Gly^25Gly^26Lys^27Gly^28His^29Lys^30”. The “temperature of first disruption of the β-sheets” value in data set [2] ([θ]196 nm as function of temperature 4–100 °C, gel 10 mg/ml in water, 37 °C 4 h, diluted to 0.20 mg/ml, decrease of molar ellipticity) is around 61 °C. Further, the “transition temperature (half β-conformation, half disordered)” value in data set [2] ([θ]196 nm vs temperature, 0.20 mg/ml in water, above 100 °C curve extrapolated, 4PL fit) is “about 92 °C”. Also, the “fibre thickness (TEM)” value in data set [3] is given as “about 3 nm”. Also, the “magnitude of G’ compared with other gels” value in “Rheology of hydrogels” (cone-plate, frequency sweep, mean of three repeats) is reported as “around one-tenth of these values”. In addition, the “shear strain above which the gel behaves like a liquid (G” > G’)” value in “Rheology of hydrogels” (strain sweep, ω = 6.28 rad/s) is reported as “above 25%”. Also, the “viability / dead cells on scaffold (CFSE / propidium iodide)” value in data set [4] is given as “most dead cells were observed”.
